Reference: patent US11530229B2, “Cyano cyclobutyl compounds for CBL-B inhibition and uses thereof” (Nurix Therapeutics, Inc., priority 2019, dated 2022)
Where two headings read alike, the source gives them in different places.

Columns and labels:
[1] = system: primary human total T-cells; test: T-cell activation, CD25 surface staining, Biological Example 2; format: cell-based; settings: 48 hours, fold change over baseline; for fold induction at 0.3 µM: 0.3 μM inhibitor; for fold induction at 1 µM: 1 μM inhibitor; for fold induction at 3 µM: 3 μM inhibitor
[2] = target: Cbl-b (Homo sapiens (Human), UniProt Q13191); test: Cbl-b displacement assay (Cbl-b inhibition assay), Biological Example 1; format: binding
Chain of Cbl-b (Q13191 36-427): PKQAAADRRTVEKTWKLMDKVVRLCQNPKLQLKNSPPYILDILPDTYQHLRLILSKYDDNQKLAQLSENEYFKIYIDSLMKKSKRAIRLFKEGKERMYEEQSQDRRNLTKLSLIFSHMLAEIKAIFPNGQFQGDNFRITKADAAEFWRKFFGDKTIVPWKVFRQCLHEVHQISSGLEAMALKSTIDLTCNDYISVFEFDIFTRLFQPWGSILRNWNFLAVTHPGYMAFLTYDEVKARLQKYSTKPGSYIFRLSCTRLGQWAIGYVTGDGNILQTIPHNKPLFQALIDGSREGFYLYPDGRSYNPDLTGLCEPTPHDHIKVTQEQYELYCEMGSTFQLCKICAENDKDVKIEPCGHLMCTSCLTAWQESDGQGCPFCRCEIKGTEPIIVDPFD
Procedure: Candidate compounds were evaluated for their ability to bind and inhibit Cbl-b, an E3 ubiquitin-protein ligase, as evidenced by their ability to displace a fluorophore-labeled probe (Example 59) bound to Cbl-b.
The ability of candidate compounds to displace a known inhibitor and thereby inhibit Cbl-b activity was measured by monitoring the interaction of Cbl-b with a fluorophore-labeled probe in the presence of the candidate compound. A truncated variant of Cbl-b (UniProt number Q13191; SEQ ID NO:1) containing an Avitag at its N-terminus was co-expressed with BirA biotin ligase and purified using a standard protocol (see Dou et al., Nature Structural and Molecular Biology, 8: 982-987, 2013; Avidity LLC).
Cbl-b Amino Acid Residues 36-427:
Fluorescently-labeled inhibitor probe was synthesized and tagged with BODIPY FL (Example 59). Cbl-b displacement assays were performed in a 384-well plate at room temperature in a 10 μL reaction volume by pre-incubating 0.5 nM Cbl-b or 0.125 nM Cbl-b (final concentration, indicated as “High” and “Low”, respectively) in an assay buffer containing 20 mM HEPES pH 7.5, 150 mM NaCl, 0.01% Triton X-100, 0.01% BSA and 0.5 mM TCEP in the presence of a candidate compound in 1% DMSO (final concentration) for 1 hour. After incubation in the presence of the candidate compound, the plate was incubated for an additional 1 hour in the presence of an approximate EC40 binding saturation consisting of 150 nM fluorescently-labeled inhibitor probe and 2 nM Streptavidin-Terbium (Cisbio) (final concentrations). Following the 1 hour incubation, the plates were read for TR-FRET signal at […] using an Envision plate reader (Perkin Elmer).

[3] = system: primary human total T-cells; test: T-cell activation, IL-2 secretion, Biological Example 2; format: cell-based; settings: 48 hours, fold change over baseline; for fold induction at 0.3 µM: 0.3 μM inhibitor; for fold induction at 1 µM: 1 μM inhibitor; for fold induction at 3 µM: 3 μM inhibitor
[4] = anti-CD3 and anti-CD28 co-stimulation
[5] = anti-CD3 and anti-CD28 co-stimulation, read-out: CD25 staining CD3/CD28 1 μM
[6] = anti-CD3 stimulation alone, read-out: CD25 staining CD3 1 μM
[7] = read-out: IC50 values in the Cbl-b inhibition assay of Biological Example 1
[8] = anti-CD3 and anti-CD28 co-stimulation, read-out: IL-2 secretion CD3/CD28 1 μM
[9] = anti-CD3 stimulation alone, read-out: IL-2 secretion CD3 1 μM
[10] = 0.125 nM Cbl-b final concentration (Low), read-out: Cbl-b activity IC50 (Low)

Compound: Cc1cc(C(=O)Nc2cccc([C@]3(Cc4nncn4C)C[C@H](C#N)C3)c2)nc(C2CC2)n1 [Compound 2, N-(3-((1s,3s)-3-cyano-1-((4-methyl-4H-1,2,4-triazol-3-yl)methyl)cyclobutyl)phenyl)-2-cyclopropyl-6-methylpyrimidine-4-carboxamide]
- fold induction at 0.3 µM [1, 4]: ≤ 1.24
- fold induction at 1 µM [1, 5]: ≤ 1.24
- fold induction at 1 µM [1, 6]: 1 to 1.15
- fold induction at 3 µM ([1]; anti-CD3 stimulation alone): 1 to 1.15
- IC50 ([2]; 0.5 nM Cbl-b final concentration (High), read-out: Cbl-b activity IC50 (High)): 2 to 5 nM
- IC50 [2, 7]: 2 to 5 nM
- fold induction at 0.3 µM [3, 4]: ≤ 15
- fold induction at 1 µM [3, 8]: ≤ 15
- fold induction at 1 µM [3, 9]: < 0.4
- fold induction at 3 µM ([3]; anti-CD3 stimulation alone): < 0.4

Compound: Cn1cnnc1C[C@]1(c2cccc(N3Cc4c(cccc4C(F)(F)F)C3=O)c2)C[C@H](C#N)C1 [Compound 3, (1r,3r)-3-((4-methyl-4H-1,2,4-triazol-3-yl)methyl)-3-(3-(1-oxo-4-(trifluoromethyl)isoindolin-2-yl)phenyl)cyclobutane-1-carbonitrile]
- fold induction at 0.3 µM [1, 4]: ≤ 1.24
- fold induction at 1 µM [1, 5]: ≤ 1.24
- fold induction at 1 µM [1, 6]: ≤ 1
- fold induction at 3 µM ([1]; anti-CD3 stimulation alone): 1 to 1.15
- IC50 [2, 10]: ≥ 20 nM
- IC50 [2, 7]: ≥ 20 nM
- fold induction at 0.3 µM [3, 4]: ≤ 15
- fold induction at 1 µM [3, 8]: ≤ 15
- fold induction at 1 µM [3, 9]: < 0.4
- fold induction at 3 µM ([3]; anti-CD3 stimulation alone): < 0.4

Compound: CCC1CN(Cc2cc3c(c(C(F)(F)F)c2)CN(c2cccc([C@]4(Cc5nncn5C)C[C@@H](C#N)C4)c2)C3=O)CCCO1 (stereo partly shown) [Compound 5, (1r,3r)-3-(3-(6-((2-ethyl-1,4-oxazepan-4-yl)methyl)-1-oxo-4-(trifluoromethyl)isoindolin-2-yl)phenyl)-3-((4-methyl-4H-1,2,4-triazol-3-yl)methyl)cyclobutane-1-carbonitrile]
- fold induction at 0.3 µM [1, 4]: > 1.39
- fold induction at 1 µM [1, 5]: > 1.39
- fold induction at 1 µM [1, 6]: > 1.15
- fold induction at 3 µM ([1]; anti-CD3 stimulation alone): > 1.15
- IC50 [2, 10]: 2 to 5 nM
- IC50 [2, 7]: 2 to 5 nM
- fold induction at 0.3 µM [3, 4]: > 20
- fold induction at 1 µM [3, 8]: > 20
- fold induction at 1 µM [3, 9]: > 0.85
- fold induction at 3 µM ([3]; anti-CD3 stimulation alone): > 0.85

Compound: C[C@@H]1CN(Cc2cc3c(c(C(F)(F)F)c2)CN(c2cccc([C@]4(Cc5nncn5C)C[C@@H](C#N)C4)c2)C3=O)CCO1 [Compound 6, (1r,3r)-3-((4-methyl-4H-1,2,4-triazol-3-yl)methyl)-3-(3-(6-(((R)-2-methylmorpholino)methyl)-1-oxo-4-(trifluoromethyl)isoindolin-2-yl)phenyl)cyclobutane-1-carbonitrile]
- fold induction at 0.3 µM [1, 4]: ≤ 1.24
- fold induction at 1 µM [1, 5]: ≤ 1.24
- fold induction at 1 µM [1, 6]: 1 to 1.15
- fold induction at 3 µM ([1]; anti-CD3 stimulation alone): ≤ 1
- IC50 [2, 10]: 2 to 5 nM
- IC50 [2, 7]: 2 to 5 nM
- fold induction at 0.3 µM [3, 4]: ≤ 15
- fold induction at 1 µM [3, 8]: ≤ 15
- fold induction at 1 µM [3, 9]: 0.4 to 0.85
- fold induction at 3 µM ([3]; anti-CD3 stimulation alone): 0.4 to 0.85

Compound: C[C@@H]1CN(Cc2cc3c(c(C(F)(F)F)c2)CN(c2cccc([C@]4(Cc5nncn5C)C[C@@](C)(C#N)C4)c2)C3=O)CCO1 [Compound 7, (1r,3r)-1-methyl-3-((4-methyl-4H-1,2,4-triazol-3-yl)methyl)-3-(3-(6-(((R)-2-methylmorpholino)methyl)-1-oxo-4-(trifluoromethyl)isoindolin-2-yl)phenyl)cyclobutane-1-carbonitrile]
- fold induction at 0.3 µM [1, 4]: ≤ 1.24
- fold induction at 1 µM [1, 5]: 1.24 to 1.39
- fold induction at 1 µM [1, 6]: ≤ 1
- fold induction at 3 µM ([1]; anti-CD3 stimulation alone): ≤ 1
- IC50 [2, 10]: 5 to 20 nM
- IC50 [2, 7]: 5 to 20 nM
- fold induction at 0.3 µM [3, 4]: ≤ 15
- fold induction at 1 µM [3, 8]: ≤ 15
- fold induction at 1 µM [3, 9]: < 0.4
- fold induction at 3 µM ([3]; anti-CD3 stimulation alone): < 0.4

Compound: Cc1cc(C(=O)Nc2cccc([C@]3(Cc4nncn4C)C[C@@](C)(C#N)C3)c2)nc(C2CC2)n1 [Compound 8, N-(3-((1r,3r)-3-cyano-3-methyl-1-((4-methyl-4H-1,2,4-triazol-3-yl)methyl)cyclobutyl)phenyl)-2-cyclopropyl-6-methylpyrimidine-4-carboxamide]
- IC50 [2, 10]: ≥ 20 nM
- IC50 [2, 7]: ≥ 20 nM

Compound: Cc1cc(C(=O)Nc2cccc([C@]3(Cc4nncn4C)C[C@](C)(C#N)C3)c2)nc(C2CC2)n1 [Compound 9]
- fold induction at 0.3 µM [1, 4]: ≤ 1.24
- fold induction at 1 µM [1, 5]: 1.24 to 1.39
- fold induction at 1 µM [1, 6]: ≤ 1
- fold induction at 3 µM ([1]; anti-CD3 stimulation alone): 1 to 1.15
- IC50 [2, 10]: 5 to 20 nM
- IC50 [2, 7]: 5 to 20 nM
- fold induction at 0.3 µM [3, 4]: ≤ 15
- fold induction at 1 µM [3, 8]: ≤ 15
- fold induction at 1 µM [3, 9]: < 0.4
- fold induction at 3 µM ([3]; anti-CD3 stimulation alone): < 0.4

Compound: C[C@@H]1CN(Cc2cc3c(c(C(F)(F)F)c2)CN(c2cccc([C@]4(Cc5nncn5C)C[C@](C)(C#N)C4)c2)C3=O)CCO1 [Compound 10, (1S,3s)-1-methyl-3-((4-methyl-4H-1,2,4-triazol-3-yl)methyl)-3-(3-(6-(((R)-2-methylmorpholino)methyl)-1-oxo-4-(trifluoromethyl)isoindolin-2-yl)phenyl)cyclobutane-1-carbonitrile]
- fold induction at 0.3 µM [1, 4]: ≤ 1.24
- fold induction at 1 µM [1, 5]: ≤ 1.24
- fold induction at 1 µM [1, 6]: ≤ 1
- fold induction at 3 µM ([1]; anti-CD3 stimulation alone): ≤ 1
- IC50 [2, 10]: ≥ 20 nM
- IC50 [2, 7]: ≥ 20 nM
- fold induction at 0.3 µM [3, 4]: ≤ 15
- fold induction at 1 µM [3, 8]: ≤ 15
- fold induction at 1 µM [3, 9]: < 0.4
- fold induction at 3 µM ([3]; anti-CD3 stimulation alone): < 0.4

Compound: Cn1cnnc1C[C@]1(c2cccc(N3Cc4c(cc(CNC5CC6C(C5)C6(F)F)cc4C(F)(F)F)C3=O)c2)C[C@H](C#N)C1 (stereo partly shown) [Compound 12, (1r,3r)-3-(3-(6-(((6,6-difluorobicyclo[3.1.0]hexan-3-yl)amino)methyl)-1-oxo-4-(trifluoromethyl)isoindolin-2-yl)phenyl)-3-((4-methyl-4H-1,2,4-triazol-3-yl)methyl)cyclobutane-1-carbonitrile]
- fold induction at 0.3 µM [1, 4]: 1.24 to 1.39
- fold induction at 1 µM [1, 5]: 1.24 to 1.39
- fold induction at 1 µM [1, 6]: 1 to 1.15
- fold induction at 3 µM ([1]; anti-CD3 stimulation alone): 1 to 1.15
- IC50 [2, 10]: < 1 nM
- IC50 [2, 7]: < 1 nM
- fold induction at 0.3 µM [3, 4]: 15 to 20
- fold induction at 1 µM [3, 8]: 15 to 20
- fold induction at 1 µM [3, 9]: > 0.85
- fold induction at 3 µM ([3]; anti-CD3 stimulation alone): 0.4 to 0.85

Compound: CC1CCCN(Cc2cc3c(c(C(F)(F)F)c2)CN(c2cccc([C@]4(Cc5nncn5C)C[C@@H](C#N)C4)c2)C3=O)CC1 (stereo partly shown) [Compound 13, (1r,3r)-3-((4-methyl-4H-1,2,4-triazol-3-yl)methyl)-3-(3-(6-((4-methylazepan-1-yl)methyl)-1-oxo-4-(trifluoromethyl)isoindolin-2-yl)phenyl)cyclobutane-1-carbonitrile]
- fold induction at 0.3 µM [1, 4]: 1.24 to 1.39
- fold induction at 1 µM [1, 5]: 1.24 to 1.39
- fold induction at 1 µM [1, 6]: > 1.15
- fold induction at 3 µM ([1]; anti-CD3 stimulation alone): 1 to 1.15
- IC50 [2, 10]: 2 to 5 nM
- fold induction at 0.3 µM [3, 4]: 15 to 20
- fold induction at 1 µM [3, 8]: 15 to 20
- fold induction at 1 µM [3, 9]: 0.4 to 0.85
- fold induction at 3 µM ([3]; anti-CD3 stimulation alone): 0.4 to 0.85

Compound: C[C@@H]1CN(Cc2cc3c(c(C(F)(F)F)c2)CN(c2cccc([C@]4(Cc5nncn5C)C[C@@H](CC#N)C4)c2)C3=O)CCC1(F)F [Compound 51, [(1r,3r)-3-[3-(6-{[(3R)-4,4-difluoro-3-methylpiperidin-1-yl]methyl}-1-oxo-4-(trifluoromethyl)-3H-isoindol-2-yl)phenyl]-3-[(4-methyl-1,2,4-triazol-3-yl)methyl]cyclobutyl]acetonitrile]
- IC50 [2, 10]: ≥ 20 nM
- IC50 [2, 7]: ≥ 20 nM

Compound: C[C@@H]1CN(Cc2cc3c(c(C(F)(F)F)c2)CN(c2cccc([C@]4(Cc5nncn5C)C[C@H](CC#N)C4)c2)C3=O)CCC1(F)F [Compound 52, ((1S,3s)-3-(3-(6-(((R)-4,4-difluoro-3-methylpiperidin-1-yl)methyl)-1-oxo-4-(trifluoromethyl)isoindolin-2-yl)phenyl)-3-((4-methyl-4H-1,2,4-triazol-3-yl)methyl)cyclobutyl)acetonitrile]
- IC50 [2, 10]: 5 to 20 nM
- IC50 [2, 7]: 5 to 20 nM

Compound: C[C@@H]1CN(C(C)(C)c2cc3c(c(C(F)(F)F)c2)CN(c2cccc([C@]4(Cc5nncn5C)C[C@@H](C#N)C4)c2)C3=O)CCO1 [Compound 58, (1R,3r)-3-((4-methyl-4H-1,2,4-triazol-3-yl)methyl)-3-(3-(6-(2-((R)-2-methylmorpholino)propan-2-yl)-1-oxo-4-(trifluoromethyl)isoindolin-2-yl)phenyl)cyclobutane-1-carbonitrile]
- IC50 [2, 10]: 2 to 5 nM
- IC50 [2, 7]: 2 to 5 nM
